Experiment [1] has as its target Beta Secretase enzyme (BACE) (Homo sapiens, UniProt P56817). The experiment is described as follows: In vitro enzymatic BACE FRET (fluorescence resonance energy transfer) assay. The class given is biochemical. Particulars: average IC50, enzyme assay; read-out: BACE 1 FRET assay. The essentials:
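A peptide bearing a fluorophore and quencher across the cleavage site serves as substrate at 50 nM. Reactions proceed one hour in acidic acetate buffer (0.05 M, pH 4.2) containing 10% DMSO final and 100 uM genapol, then are terminated with Tris and read fluorimetrically.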

Experiment [2] has as its system Aβ40 in conditioned medium of cells stably expressing Amyloid Precursor Protein (APP). Description: In vitro BACE cell-based assay (Aβ40 in conditioned medium, sandwich ELISA). Conditions: read-out: HEK cell assay. The essentials:
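Conditioned medium from stably APP-expressing cells treated with compound dose series is assayed for Aβ40 by sandwich ELISA with time-resolved fluorescence detection. IC50 is calculated from percent inhibition of Aβ40 against compound concentration.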

[3] abbreviates: Homo sapiens, HEK293, average IC50.
Setting [4] is: Homo sapiens, HEK293, average IC50, HEK cells.

Like-named read-outs stand apart in the source and are kept apart here.

Beta Secretase enzyme (BACE), sequence (P56817 46-501, species assumed): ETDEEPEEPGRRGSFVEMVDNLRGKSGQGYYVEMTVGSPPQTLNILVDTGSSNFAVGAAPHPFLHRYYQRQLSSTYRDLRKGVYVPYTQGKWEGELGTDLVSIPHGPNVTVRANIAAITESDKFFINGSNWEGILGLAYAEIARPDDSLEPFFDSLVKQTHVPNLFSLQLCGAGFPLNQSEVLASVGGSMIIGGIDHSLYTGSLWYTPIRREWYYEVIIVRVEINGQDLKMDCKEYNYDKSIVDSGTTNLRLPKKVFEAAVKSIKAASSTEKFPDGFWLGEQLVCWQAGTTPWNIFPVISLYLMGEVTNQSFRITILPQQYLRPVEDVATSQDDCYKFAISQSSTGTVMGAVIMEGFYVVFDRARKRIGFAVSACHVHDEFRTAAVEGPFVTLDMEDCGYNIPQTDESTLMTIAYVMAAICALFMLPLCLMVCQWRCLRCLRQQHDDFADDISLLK

Turning to `NC1=N[C@@]2(CS1)c1cc(-c3cccnc3F)ccc1Oc1ncc(C3CCOCC3)cc12` [Example 729, (5S)-7-(2-fluoro-3-pyridinyl)-3-(tetrahydro-2H-pyran-4-yl)spiro[chromeno[2,3-b]pyridine-5,4′-[1,3]thiazol]-2′-amine], the IC50 in experiment [1] stood at 6.8 nM; in experiment [2] (setting [3]), 43 nM.
Turning to `NC1=N[C@@]2(CO1)c1cc(-c3cccnc3F)ccc1Oc1cc(F)c(C3=CCOCC3)cc12` [Example 320, (4S)-2′-(3,6-dihydro-2H-pyran-4-yl)-3′-fluoro-7′-(2-fluoro-3-pyridinyl)spiro[1,3-oxazole-4,9′-xanthen]-2-amine], the IC50 amounted to 6.6 nM in experiment [1] and 60 nM in experiment [2] (setting [3]).
`NC1=N[C@@]2(CO1)c1cc(-c3cnccn3)ccc1Oc1c(F)cc(C3CCOCC3)cc12` [Example 935, (4S)-4′-fluoro-7′-(2-pyrazinyl)-2′-(tetrahydro-2H-pyran-4-yl)spiro[1,3-oxazole-4,9′-xanthen]-2-amine]: the IC50 in experiment [1] came out at 6.6 nM; in experiment [2] (setting [4]), 82 nM.
In the case of `NC1=N[C@@]2(CO1)c1cc(-c3cc(Cl)ccc3Cl)ccc1Oc1ncc(C3=CCOCC3)cc12` [Example 501, (5S)-7-(2,5-dichlorophenyl)-3-(3,6-dihydro-2H-pyran-4-yl)spiro[chromeno[2,3-b]pyridine-5,4′-[1,3]oxazol]-2′-amine], the IC50 in experiment [1] was 2.2 nM; in experiment [2] (setting [4]), 27 nM.
The matching figures for `CC1(COc2cc(F)c3c(c2)[C@@]2(CSC(N)=N2)c2cc(-c4cncnc4)c(F)cc2O3)COC1` [Example 876, (4R)-3′,5′-difluoro-7′-((3-methyl-3-oxetanyl)methoxy)-2′-(5-pyrimidinyl)spiro[1,3-thiazole-4,9′-xanthen]-2-amine]: 44.9 nM and 634 nM.
The corresponding values for `Cc1cnc(F)c(-c2ccc3c(c2)[C@@]2(COC(N)=N2)c2cc(-c4ccnc(F)c4)ncc2O3)c1` [Example 422, (5S)-7-(2-fluoro-5-methyl-3-pyridinyl)-3-(2-fluoro-4-pyridinyl)spiro[chromeno[2,3-c]pyridine-5,4′-[1,3]oxazol]-2′-amine] are 2.1 nM and 23.2 nM.
For the compound `CC(C)(C#N)COc1cc(F)c2c(c1)[C@]1(COC(N)=N1)c1cc(-c3cncc(Cl)c3)ccc1O2` [Example 204, 3-(((4S)-2-amino-7′-(5-chloro-3-pyridinyl)-4′-fluorospiro[1,3-oxazole-4,9′-xanthen]-2′-yl)oxy)-2,2-dimethylpropanenitrile], the IC50 in experiment [1] was determined as 0.5 nM; in experiment [2] (setting [3]), 4.5 nM.
With `CC1(C#Cc2cc3c(cc2F)Oc2ccc(-c4cccnc4F)cc2[C@@]32COC(N)=N2)COC1` [Example 312, (4S)-3′-fluoro-7′-(2-fluoro-3-pyridinyl)-2′-((3-methyl-3-oxetanyl)ethynyl)spiro[1,3-oxazole-4,9′-xanthen]-2-amine], the IC50 in experiment [1] turned out to be 2.5 nM; in experiment [2] (setting [3]), 30.3 nM.
As for `COC(C)(C)COc1cnc2c(c1)[C@@]1(COC(N)=N1)c1cc(-c3cccc(C(F)(F)F)c3)ccc1O2` [Example 316, (5R)-3-(2-methoxy-2-methylpropoxy)-7-(3-(trifluoromethyl)phenyl)spiro[chromeno[2,3-b]pyridine-5,4′-[1,3]oxazol]-2′-amine], the IC50 is 393 nM in experiment [1] and 2100 nM in experiment [2] (setting [3]).
The matching figures for `CC1(C)C=C(c2cnc3c(c2)[C@]2(CSC(N)=N2)c2cc(-c4cccc(C#N)c4F)ccc2O3)CCO1` [Example 779, 3-((5S)-2′-amino-3-(6,6-dimethyl-3,6-dihydro-2H-pyran-4-yl)spiro[chromeno[2,3-b]pyridine-5,4′-[1,3]thiazol]-7-yl)-2-fluorobenzonitrile]: 4.8 nM and 319 nM.
For `NC1=N[C@]2(CO1)c1cc(-c3cccnc3F)c(F)cc1Oc1c(F)cc(C3CCOCC3)cc12` [Example 871, (4R)-3′,5′-difluoro-2′-(2-fluoro-3-pyridinyl)-7′-(tetrahydro-2H-pyran-4-yl)spiro[1,3-oxazole-4,9′-xanthen]-2-amine], the IC50 amounted to 179 nM in experiment [1] and 6470 nM in experiment [2] (setting [4]).
On to `CC(C)(C#N)COc1cc(F)c2c(c1)[C@]1(COC(N)=N1)c1cc(-c3cncc(C#N)c3)ccc1O2` [Example 265, 5-((4S)-2-amino-7′-(2-cyano-2-methylpropoxy)-5′-fluorospiro[1,3-oxazole-4,9′-xanthen]-2′-yl)-3-pyridinecarbonitrile], for which the values for the IC50 in experiment [1] and in experiment [2] (setting [3]) were 0.8 nM and 4.7 nM, respectively.
“(6R)-4-((4S)-2-amino-4′-fluoro-7′-(2-fluoro-3-pyridinyl)spiro[1,3-oxazole-4,9′-xanthen]-2′-yl)-6-methyl-5,6-dihydro-2H-pyran-2-one, (6S)-4-((4S)-2-amino-4′-fluoro-7′-(2-fluoro-3-pyridinyl)spiro[1,3-oxazole-4,9′-xanthen]-2′-yl)-6-methyl-5,6-dihydro-2H-pyran-2-one [Example 803]”: the IC50 in experiment [1] amounted to 0.8 nM; in experiment [2] (average IC50), 15 nM.
For `NC1=N[C@@]2(CO1)c1cc(-c3cncc(F)c3)ccc1Oc1c(F)cc([C@H]3CCCOC3)cc12` [Example 285, (4S)-4′-fluoro-7′-(5-fluoro-3-pyridinyl)-2′-((3R)-tetrahydro-2H-pyran-3-yl)spiro[1,3-oxazole-4,9′-xanthen]-2-amine], the IC50 in experiment [1] stood at 2.4 nM; in experiment [2] (setting [3]) it was 20.4 nM.
For the compound `NC1=N[C@@]2(CO1)c1cc(-c3cncnc3)c(F)cc1Oc1c(F)cc(C3=CCOCC3)cc12` [Example 1038, (4S)-7′-(3,6-dihydro-2H-pyran-4-yl)-3′,5′-difluoro-2′-(5-pyrimidinyl)spiro[1,3-oxazole-4,9′-xanthen]-2-amine], the IC50 in experiment [1] stood at 0.4 nM; in experiment [2] (setting [3]), 10 nM.
In the case of `CC(C)(O)CCc1ccc2c(c1)[C@]1(COC(N)=N1)c1cc(-c3cncnc3)c(F)cc1O2` [Example 96, (R)-4-(2-amino-3′-fluoro-2′-(pyrimidin-5-yl)-5H-spiro[oxazole-4,9′-xanthene]-7′-yl)-2-methylbutan-2-ol], the results for the IC50 in experiment [1] and in experiment [2] (setting [3]) were 10.7 nM and 22.8 nM, respectively.
`Cc1cc(-c2cc(F)c3c(c2)[C@]2(COC(N)=N2)c2cc(-c4cccnc4F)ccc2O3)cc(=O)o1` [Example 200, 4-((4S)-2-amino-4′-fluoro-7′-(2-fluoro-3-pyridinyl)spiro[1,3-oxazole-4,9′-xanthen]-2′-yl)-6-methyl-2H-pyran-2-one]: the IC50 in experiment [1] turned out to be 0.6 nM; in experiment [2] (setting [3]), 8.5 nM.
In the case of `CC1(C)C[C@@H](c2cnc3c(c2)[C@]2(COC(N)=N2)c2cc(-c4cccc(C#N)c4)ccc2O3)CCO1` [Example 472, 3-((5S)-2′-amino-3-((4S)-2,2-dimethyltetrahydro-2H-pyran-4-yl)spiro[chromeno[2,3-b]pyridine-5,4′-[1,3]oxazol]-7-yl)benzonitrile], the IC50 came to 2.3 nM in experiment [1] and 4.4 nM in experiment [2] (setting [4]).
Consider `CC(C)N(C)c1cc2c(cn1)Oc1ccc(-c3cccnc3)cc1[C@@]21COC(N)=N1` [Example 435, (5S)-N~3~-methyl-N~3~-(1-methylethyl)-7-(3-pyridinyl)spiro[chromeno[2,3-c]pyridine-5,4′-[1,3]oxazole]-2′,3-diamine], for which the IC50 in experiment [1] stood at 5.6 nM; in experiment [2] (setting [4]), 29.6 nM.
In the case of `NC1=N[C@@]2(CO1)c1cc(OCc3cccnc3)ccc1Oc1ncc(Br)cc12` [Example 976, (5S)-3-bromo-7-(3-pyridinylmethoxy)spiro[chromeno[2,3-b]pyridine-5,4′-[1,3]oxazol]-2′-amine], the results for the IC50 in experiment [1] and in experiment [2] (setting [3]) were 3810 nM and no less than 10000 nM, respectively.
Turning to `CC(C)(F)COc1cc(F)c2c(c1)[C@]1(COC(N)=N1)c1cc(-c3ccc(F)nc3)ccc1O2` [Example 259, (4S)-4′-fluoro-2′-(2-fluoro-2-methylpropoxy)-7′-(6-fluoro-3-pyridinyl)spiro[1,3-oxazole-4,9′-xanthen]-2-amine], the IC50 in experiment [1] was 2.7 nM; in experiment [2] (setting [3]) it was 19.8 nM.
Consider `NC1=N[C@@]2(CO1)c1cc(-c3cccnc3F)ccc1Oc1cc(OC(F)(F)F)c(-c3ccnc(F)c3)cc12` [Example 991, (4S)-7′-(2-fluoro-3-pyridinyl)-2′-(2-fluoro-4-pyridinyl)-3′-(trifluoromethoxy)spiro[1,3-oxazole-4,9′-xanthen]-2-amine], for which the figures for the IC50 in experiment [1] and in experiment [2] (setting [3]) were 193 nM and 1090 nM, respectively.
As to `C[C@H]1COCCN1c1cc(F)c2c(c1)[C@]1(CSC(N)=N1)c1cc(-c3cccnc3F)ccc1O2` [Example 1082, (4S)-4′-fluoro-7′-(2-fluoro-3-pyridinyl)-2′-((3S)-3-methyl-4-morpholinyl)spiro[1,3-thiazole-4,9′-xanthen]-2-amine], the IC50 in experiment [1] was 0.3 nM; in experiment [2] (setting [3]) it was 4 nM.
For the compound `NC1=N[C@@]2(CO1)c1cc(-c3cccnc3F)ccc1Oc1cnc(C3=CCCCC3)cc12` [Example 386, (5S)-3-(1-cyclohexen-1-yl)-7-(2-fluoro-3-pyridinyl)spiro[chromeno[2,3-c]pyridine-5,4′-[1,3]oxazol]-2′-amine], the IC50 turned out to be 0.4 nM in experiment [1] and 11.1 nM in experiment [2] (setting [4]).
On to `CC1(COc2cc3c(cc2F)Oc2ccc(-c4cccnc4F)cc2[C@@]32COC(N)=N2)COC1` [Example 360, (4S)-3′-fluoro-7′-(2-fluoro-3-pyridinyl)-2′-((3-methyl-3-oxetanyl)methoxy)spiro[1,3-oxazole-4,9′-xanthen]-2-amine], for which the IC50 in experiment [1] was 2.9 nM; in experiment [2] (setting [3]) it was 22.4 nM.
Regarding `CC1(C#Cc2ccc3c(c2)[C@@]2(COC(N)=N2)c2cc(C4=CCOCC4)ncc2O3)COC1` [Example 160, (5S)-3-(3,6-dihydro-2H-pyran-4-yl)-7-((3-methyl-3-oxetanyl)ethynyl)spiro[chromeno[2,3-c]pyridine-5,4′-[1,3]oxazol]-2′-amine], the values for the IC50 in experiment [1] and in experiment [2] (setting [3]) were 22 nM and 91 nM, respectively.
